Measured values taken from patent US8501713B2, “Drug combinations for the treatment of duchenne muscular dystrophy” (Summit Corporation PLC, priority 2007, dated 2013).

System: Utrophin A promoter linked to a luciferase reporter gene
Assay: Luciferase reporter assay (murine H2K cells)
Format: cell-based
Conditions: for activity at 10 µM: Mus musculus, H2K mdx, luciferase level relative to control, H2K/mdx/Utro A reporter cells, compound 10 μM final concentration, read-out: Activity; for Activity: luciferase reporter assay in murine H2K cells, classified relative to control
Outline: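 Immortalized mdx mouse H2K myoblasts stably carrying a ~5 kb utrophin A promoter–luciferase construct, kept at 33° C, 10% CO2. After 24 hrs plating, compound added at 10 μM final for 48 hrs; luciferase light output read after in-situ lysis.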

Compound	activity at 10 µM	Activity
c1ccc(CNc2ccc3oc(-c4ccccc4)nc3c2)cc1 [Example 156, N-benzyl-2-phenylbenzo[d]oxazol-5-amine]	301 to 400%	–
Cc1ccc(-c2nc3cnccc3o2)cc1 [Example 192, 2-p-tolyloxazolo[4,5-c]pyridine]	< 200%	–
Cc1ccc(CSc2nc3cc([N+](=O)[O-])ccc3o2)cc1 [Example 382, 2-(4-methylbenzylthio)-5-nitrobenzo[d]oxazole]	< 200%	–
CC(=O)Oc1ccc(C(=O)Nc2ccc(-c3nc4ccccc4[nH]3)cc2)cc1 [Example 655]	–	+++ (Between 301% and 400% relative to control)
O=C(Cc1ccccc1)Nc1ccc2oc(-c3ccc(Cl)cc3)nc2c1 [Example 97, N-(2-(4-chlorophenyl)benzo[d]oxazol-5-yl)-2-phenylacetamide]	201 to 300%	–
CCN(CC)c1ccc(-c2nc3c(ccc4ccccc43)o2)cc1 [Example 146, N,N-diethyl-4-(naphtho[1,2-d]oxazol-2-yl)aniline]	201 to 300%	–
CCS(=O)(=O)c1ccc2oc(-c3ccc(C)cc3)nc2c1 [Example 179, 5-(ethylsulfonyl)-2-p-tolylbenzo[d]oxazole]	> 401%	–
CCN(CC)c1ccc(-c2nc3cc(NC(=O)Cc4ccccc4)ccc3o2)cc1 [Example 73, N-(2-(4-(diethylamino)phenyl)benzo[d]oxazol-5-yl)-2-phenylacetamide]	201 to 300%	–
Cc1ccc2nc(-c3ccc(C)c(N)c3)oc2c1 [Example 635]	–	+++ (Between 301% and 400% relative to control)
CC(C)C(=O)Nc1ccc2oc(-c3ccc(Cl)c(Cl)c3)nc2c1 [Example 268, N-(2-(3,4-dichlorophenyl)benzo[d]oxazol-5-yl)isobutyramide]	> 401%	–
CC(C)C(=O)Nc1ccc2oc(-c3ccccc3)cc2c1 [Example 396, N-(2-phenylbenzofuran-5-yl)isobutyramide]	> 401%	–
c1ccc(-c2nc3ccccc3o2)nc1 [Example 147, 2-(pyridin-2-yl)benzo[d]oxazole]	< 200%	–
Cc1ccc2[nH]c(-c3ccccc3N)nc2c1 [Example 554]	–	+++ (Between 301% and 400% relative to control)
Nc1c(C(=O)Nc2ccc(F)cc2)sc2nc3c(cc12)CCC3 [Example 628]	–	++++ (Above 401% relative to control)
Cc1cc(-c2nc3ccccc3[nH]2)ccc1[N+](=O)[O-] [Example 105, 2-(3-methyl-4-nitrophenyl)-1H-benzo[d]imidazole]	> 401%	–
COc1ccc(-c2nc3cc(N)ccc3[nH]2)cc1 [Example 535]	–	++ (Between 201% and 300% relative to control)
Cc1ccc(-c2nc3cc(NCC(C)C)ccc3o2)cc1 [Example 186, N-isobutyl-2-p-tolylbenzo[d]oxazol-5-amine]	301 to 400%	–
O=C(Nc1ccc2oc(-c3cccc(Cl)c3Cl)nc2c1)c1cccc(Cl)c1Cl [Example 376, 2,3-dichloro-N-(2-(2,3-dichlorophenyl)benzo[d]oxazol-5-yl)benzamide]	< 200%	–
CCCC(=O)Nc1ccc2[nH]c(-c3ccc(C)cc3)nc2c1 [Example 166, N-(2-p-tolyl-1H-benzo[d]imidazol-5-yl)butyramide]	< 200%	–

Compound	activity at 10 µM	Activity
O=C(Nc1ccccc1-c1nc2ccccc2[nH]1)c1ccc(S(=O)(=O)N2CCCC2)cc1 [Example 511]	–	+ (Up to 200% relative to control)
CC(C)N(C)C(=O)c1ccc2oc(-c3ccc(Cl)cc3)nc2c1 [Example 278, 2-(4-chlorophenyl)-N-isopropyl-N-methylbenzo[d]oxazole-5-carboxamide]	301 to 400%	–
CCCCC(=O)Nc1ccc2oc(-c3ccccc3)nc2c1 [Example 11, N-(2-phenylbenzo[d]oxazol-5-yl)pentanamide]	201 to 300%	–
O=[N+]([O-])c1ccc2oc(-c3cccs3)nc2c1 [Example 388, 5-nitro-2-(thiophen-2-yl)benzo[d]oxazole]	< 200%	–
O=[N+]([O-])c1ccc2oc(-c3ccccc3)nc2c1 [Example 492]	–	++ (Between 201% and 300% relative to control)
COc1ccc(OCc2nc3ccccc3n2C)cc1 [Example 528]	–	++ (Between 201% and 300% relative to control)
CCS(=O)(=O)c1ccc2oc(-c3cc(C)cs3)nc2c1 [Example 443, 5-(ethylsulfonyl)-2-(4-methylthiophen-2-yl)benzo[d]oxazole]	> 401%	–
COc1ccc(-c2ccc3oc(-c4ccc(C)cc4)nc3c2)cc1 [Example 199, 5-(4-methoxyphenyl)-2-p-tolylbenzo[d]oxazole]	< 200%	–
CC(=O)Nc1ccc(-c2nc3cc(C)c(C)cc3o2)c(O)c1 [Example 433, N-(4-(5,6-dimethylbenzo[d]oxazol-2-yl)-3-hydroxyphenyl)acetamide]	201 to 300%	–
CC(C)(C)c1ccc2oc(-c3ccccc3)nc2c1 [Example 129, 5-tert-butyl-2-phenylbenzo[d]oxazole]	> 401%	–
CCCCNc1ccc2oc(-c3ccc(C)cc3)nc2c1 [Example 185, N-butyl-2-p-tolylbenzo[d]oxazol-5-amine]	301 to 400%	–
COc1ccc(-c2nc3cc(NC(C)=O)ccc3o2)cc1 [Example 135, N-(2-(4-methoxyphenyl)benzo[d]oxazol-5-yl)acetamide]	301 to 400%	–
CCCC(=O)Nc1ccc2oc(-c3ccccc3)nc2c1 [Example 10, N-(2-phenylbenzo[d]oxazol-5-yl)butyramide]	301 to 400%	–
CCCC(=O)Nc1ccc2oc(-c3ccc(Cl)cc3)nc2c1 [Example 99, N-(2-(4-chlorophenyl)benzo[d]oxazol-5-yl)butyramide]	> 401%	–
CC(=O)Nc1ccc2oc(-c3ccccc3)nc2c1 [Example 8, N-(2-phenylbenzo[d]oxazol-5-yl)acetamide]	201 to 300%	–
CCN(CC)c1ccc(-c2nc3cc(C(C)(C)C)ccc3o2)cc1 [Example 142, 4-(5-tert-butylbenzo[d]oxazol-2-yl)-N,N-diethylaniline]	201 to 300%	–
CC(C)CNc1ccc2oc(-c3ccc(Cl)cc3)nc2c1 [Example 183, 2-(4-chlorophenyl)-N-isobutylbenzo[d]oxazol-5-amine]	301 to 400%	–
O=C(Nc1ccc2oc(-c3ccccc3)nc2c1)c1ccc(F)cc1 [Example 31, 4-fluoro-N-(2-phenylbenzo[d]oxazol-5-yl)benzamide]	< 200%	–
CC(C)C(=O)Nc1ccc2oc(-c3ccc(C(F)(F)F)cc3)nc2c1 [Example 127, N-(2-(4-(trifluoromethyl)phenyl)benzo[d]oxazol-5-yl)isobutyramide]	< 200%	–

Compound	activity at 10 µM	Activity
O=C(Nc1ccc2oc(-c3ccccc3)nc2c1)c1ccc2ccccc2c1 [Example 36, N-(2-phenylbenzo[d]oxazol-5-yl)-2-naphthamide]	< 200%	–
CCSc1cccc(-c2ccc3oc(-c4ccc(Cl)cc4)nc3c2)c1 [Example 292, 2-(4-chlorophenyl)-5-(3-(ethylthio)phenyl)benzo[d]oxazole]	201 to 300%	–
O=C(Nc1ccc(-c2nc3cc(Cl)ccc3o2)cc1)c1cccs1 [Example 319, N-(4-(5-chlorobenzo[d]oxazol-2-yl)phenyl)thiophene-2-carboxamide]	< 200%	–
CCN(CC)c1ccc(-c2nc3ccccc3o2)cc1 [Example 143, 4-(benzo[d]oxazol-2-yl)-N,N-diethylaniline]	201 to 300%	–
CCN(CC)c1ccc(-c2nc3cc(N)ccc3o2)cc1 [Example 16, 2-(4-(diethylamino)phenyl)benzo[d]oxazol-5-amine]	201 to 300%	–
CC(C)S(=O)(=O)c1ccc2oc(-c3ccc(Cl)cc3)nc2c1 [Example 281, 2-(4-chlorophenyl)-5-(isopropylsulfonyl)benzo[d]oxazole]	> 401%	–
CCC(=O)Nc1ccc2nn(-c3ccc(Cl)cc3)nc2c1 [Example 148, N-(2-(4-chlorophenyl)-2H-benzo[d][1,2,3]triazol-5-yl)propionamide]	> 401%	–
NS(=O)(=O)c1ccc2oc(-c3ccc(Cl)cc3)nc2c1 [Example 325, 2-(4-chlorophenyl)benzo[d]oxazole-5-sulfonamide]	> 401%	–
CCS(=O)(=O)c1ccc2oc(-c3ccc4occc4c3)nc2c1 [Example 445, 2-(benzofuran-5-yl)-5-(ethylsulfonyl)benzo[d]oxazole]	> 401%	–
Nc1cc2oc(-c3ccc4c(c3)OCO4)nc2cc1Cl [Example 397, 2-(benzo[d][1,3]dioxol-5-yl)-5-chlorobenzo[d]oxazol-6-amine]	301 to 400%	–
Nc1ccc2oc(-c3cnc4ccccc4c3)nc2c1 [Example 403, 2-(quinolin-3-yl)benzo[d]oxazol-5-amine]	301 to 400%	–
O=C(Nc1ccc2oc(-c3ccc(C(F)(F)F)cc3)nc2c1)c1cccnc1 [Example 121, N-(2-(4-(trifluoromethyl)phenyl)benzo[d]oxazol-5-yl)nicotinamide]	< 200%	–
O=C(CSc1nc2ccccc2s1)N1CCCCC1 [Example 617]	–	++++ (Above 401% relative to control)
CC(C)S(=O)(=O)Nc1ccc2oc(-c3ccccc3)nc2c1 [Example 220, N-(2-phenylbenzo[d]oxazol-5-yl)propane-2-sulfonamide]	201 to 300%	–
Nc1cccc(-c2ccc3oc(-c4ccc(Cl)cc4)nc3c2)c1 [Example 328, 3-(2-(4-chlorophenyl)benzo[d]oxazol-5-yl)aniline]	> 401%	–
COc1ccc(C(=O)Nc2ccc(-c3nc4ccccc4[nH]3)cc2)cc1OC [Example 494]	–	+ (Up to 200% relative to control)
O=C(Nc1nc2ccccc2s1)c1cc2ccccc2o1 [Example 626]	–	++++ (Above 401% relative to control)
Cc1ccc2[nH]c(-c3ccc([N+](=O)[O-])cc3)nc2c1 [Example 605]	–	+++ (Between 301% and 400% relative to control)
COCCC(=O)Nc1ccc2oc(-c3ccc(Cl)cc3)nc2c1 [Example 323, N-(2-(4-chlorophenyl)benzo[d]oxazol-5-yl)-3-methoxypropanamide]	> 401%	–
